# US10017504B2, “Piperidine isoxazole and isothiazole orexin receptor antagonists” (MERCK SHARP & DOHME CORP., priority 2014, dated 2018)
# Target: human orexin-2 receptor (Homo sapiens (Human), UniProt O43614)
# Experiment: FLIPR Ca2+ Flux Assay, orexin-2 receptor
# Assay type: cell-based
# Conditions: CHO cells expressing the human orexin-2 receptor; agonist 70 pM Ala-6,12 human orexin-A; read-out: hOX2 FLIPR IC50
# Experimental: In a typical experiment the OX1 and OX2 receptor antagonistic activity of the compounds of the present invention was determined in accordance with the following experimental method. For intracellular calcium measurements, Chinese hamster ovary (CHO) cells expressing the rat orexin-1 receptor or the human orexin-2 receptor, are grown in Iscove's modified DMEM containing 2 mM L-glutamine, […], 1% hypoxanthine-thymidine supplement, 100 U/ml penicillin, 100 μg/ml streptomycin and 10% heat-inactivated fetal calf serum (FCS). The cells are seeded at 20,000 cells/well into Becton-Dickinson black 384-well clear bottom sterile plates coated with poly-D-lysine. All reagents are from GIBCO-Invitrogen Corp. The seeded plates are incubated overnight at 37° C. and 5% CO2. Ala-6,12 human orexin-A as the agonist is prepared as a 1 mM stock solution in 1% bovine serum albumin (BSA) and diluted in assay buffer (HBSS containing 20 mM HEPES, 0.1% BSA and 2.5 mM probenecid, pH7.4) for use in the assay at a final concentration of 70 pM. Test compounds are prepared as 10 mM stock solution in DMSO, then diluted in 384-well plates, first in DMSO, then assay buffer. On the day of the assay, cells are washed 3 times with 100 μl assay buffer and then incubated for 60 min (37° C., 5% CO2) in 60 μl assay buffer containing 1 μM Fluo-4AM ester, 0.02% pluronic acid, and 1% BSA. The dye loading solution is then aspirated and cells are washed 3 times with 100 μl assay buffer. 30 μl of that same buffer is left in each well. Within the Fluorescent Imaging Plate Reader (FLIPR, Molecular Devices), test compounds are added to the plate in a volume of 25 μl, incubated for 5 min and finally 25 μl of agonist is added. Fluorescence is measured for each well at 1 second intervals for 5 minutes and the height of each fluorescence peak is compared to the height of the fluorescence peak induced by 70 pM Ala-6,12 orexin-A with buffer in place of antagonist. […] The intrinsic orexin receptor antagonist activity of a compound which may be used in the present invention may be determined by these assays.
# human orexin-2 receptor, sequence (O43614 whole entry): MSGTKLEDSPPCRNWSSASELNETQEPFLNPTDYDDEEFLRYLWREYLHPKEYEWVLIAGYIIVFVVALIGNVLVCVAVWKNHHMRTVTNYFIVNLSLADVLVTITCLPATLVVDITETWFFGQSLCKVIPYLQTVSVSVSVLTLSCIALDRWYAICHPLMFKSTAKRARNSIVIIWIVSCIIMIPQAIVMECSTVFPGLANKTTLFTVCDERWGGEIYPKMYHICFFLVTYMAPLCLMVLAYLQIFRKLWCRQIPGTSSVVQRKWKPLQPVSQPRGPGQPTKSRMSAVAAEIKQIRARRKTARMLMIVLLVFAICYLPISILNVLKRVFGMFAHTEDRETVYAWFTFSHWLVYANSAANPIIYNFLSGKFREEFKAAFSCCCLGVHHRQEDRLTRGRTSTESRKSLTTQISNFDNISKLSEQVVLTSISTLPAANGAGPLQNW
row,Structure (SMILES),IC50
1,"C[C@@H]1CC[C@@H](c2cc(C(C)(C)O)on2)CN1C(=O)c1ccccc1-n1nccn1 [Example 1, 2-{3-[(3R,6R)-6-Methyl-1-{[2-(2H-1,2,3-triazol-2-yl)phenyl]carbonyl}piperidin-3-yl]isoxazol-5-yl}propan-2-ol]",46.9 nM
2,"CCOc1ccccc1C(=O)N1C[C@H](c2cc(C(C)(C)O)on2)CC[C@H]1C [Example 5, (2-Ethoxyphenyl)((2R,5R)-5-(5-(2-hydroxypropan-2-yl)isoxazol-3-yl)-2-methylpiperidin-1-yl)methanone]",1190 nM
3,"C[C@@H]1CC[C@@H](c2cc(C(C)(C)O)on2)CN1C(=O)c1cc(F)ccc1-n1nccn1 [Example 4, (5-Fluoro-2-(2H-1,2,3-triazol-2-yl)phenyl)((2R,5R)-5-(5-(2-hydroxypropan-2-yl)isoxazol-3-yl)-2-methylpiperidin-1-yl)methanone]",278 nM
4,"C[C@@H]1CC[C@@H](c2cc(C3(O)CCC3)on2)CN1C(=O)c1ccccc1-n1nccn1 [Example 13, 1-{3-[(3R,6R)-6-Methyl-1-{[2-(2H-1,2,3-triazol-2-yl)phenyl]carbonyl}piperidin-3-yl]isoxazol-5-yl}cyclobutanol]",635 nM
5,"COCCc1ccccc1C(=O)N1C[C@H](c2cc(C(C)(C)O)sn2)CC[C@H]1C [Example 70, 2-{3-[(3R,6R)-1-{[2-(2-methoxyethyl)phenyl]carbonyl}-6-methylpiperidin-3-yl]isothiazol-5-yl}propan-2-ol]",935 nM
6,"C[C@@H]1CC[C@@H](c2cc(C(C)(C)O)sn2)CN1C(=O)c1ccccc1-c1ncccn1 [Example 63, 2-(3-{(3R,6R)-6-Methyl-1-[(2-pyrimidin-2-ylphenyl)carbonyl]piperidin-3-yl}isothiazol-5-yl)propan-2-ol]",42.3 nM
7,"CC[C@@H]1CC[C@@H](c2cc(C(C)(C)O)no2)CN1C(=O)c1ccccc1-n1nccn1 [Example 39, 2-{5-[(3R,6R)-6-Ethyl-1-{[2-(2H-1,2,3-triazol-2-yl)phenyl]carbonyl}piperidin-3-yl]isoxazol-3-yl}propan-2-ol]",42.4 nM
8,"C[C@@H]1CC[C@@H](c2cc(C(C)(C)O)no2)CN1C(=O)c1ccccc1-c1ccccc1 [Example 26, 2-{5-[(3R,6R)-1-(Biphenyl-2-ylcarbonyl)-6-methylpiperidin-3-yl]isoxazol-3-yl}propan-2-ol]",22.9 nM
9,"C[C@@H]1CC[C@@H](c2cc(C(C)(O)C3CC3)on2)CN1C(=O)c1ccccc1-n1nccn1 (single isomer, unassigned) [Example 9]",25.8 nM
10,"C[C@@H]1CC[C@@H](c2cc([C@@H](O)C(F)(F)F)no2)CN1C(=O)c1ccccc1-n1ncnn1 [Example 46, (1R)-2,2,2-Trifluoro-1-{5-[(3R,6R)-6-methyl-1-{[2-(2H-tetrazol-2-yl)phenyl]carbonyl}piperidin-3-yl]isoxazol-3-yl}ethanol]",356 nM
11,"CC[C@@](C)(O)c1cc([C@@H]2CC[C@@H](C)N(C(=O)c3ccccc3-n3nccn3)C2)no1 [Example 11, (2-(2H-1,2,3-Triazol-2-yl)phenyl)((2R,5R)-5-(5-((R)-2-hydroxybutan-2-yl)isoxazol-3-yl)-2-methylpiperidin-1-yl)methanone]",41.4 nM
12,"C[C@@H]1CC[C@@H](c2cc([C@H](O)C(F)(F)F)no2)CN1C(=O)c1ccccc1C1(C#N)CC1 [Example 45, 1-(2-{[(2R,5R)-2-Methyl-5-{3-[(1S)-2,2,2-trifluoro-1-hydroxyethyl]isoxazol-5-yl}piperidin-1-yl]carbonyl}phenyl)cyclopropanecarbonitrile]",41.2 nM
13,"COC(=O)c1ccccc1C(=O)N1C[C@H](c2cc(C(C)(C)O)no2)CC[C@H]1C [Example 30, Methyl 2-({(2R,5R)-5-[3-(1-hydroxy-1-methylethyl)isoxazol-5-yl]-2-methylpiperidin-1-yl}carbonyl)benzoate]",251 nM
14,"C[C@@H]1CC[C@@H](c2cc(C(C)(C)O)sn2)CN1C(=O)c1cccnc1OCC(F)F [Example 69, 2-{3-[(3R,6R)-1-{[2-(2,2-Difluoroethoxy)pyridin-3-yl]carbonyl}-6-methylpiperidin-3-yl]isothiazol-5-yl}propan-2-ol]",42.8 nM
15,"C[C@@H]1CC[C@@H](c2cc(C(C)(C)O)sn2)CN1C(=O)c1ccccc1-n1nccn1 [Example 58, 2-{3-[(3R,6R)-6-Methyl-1-{[2-(2H-1,2,3-triazol-2-yl)phenyl]carbonyl}piperidin-3-yl]isothiazol-5-yl}propan-2-ol]",13.9 nM
16,"C[C@@H]1CC[C@@H](c2cc(C(C)(C)O)sn2)CN1C(=O)c1cscc1-n1nccn1 [Example 66, 2-{3-[(3R,6R)-6-Methyl-1-{[4-(2H-1,2,3-triazol-2-yl)thiophen-3-yl]carbonyl}piperidin-3-yl]isothiazol-5-yl}propan-2-ol]",21.1 nM
17,"C[C@@H]1CC[C@@H](c2cc(C(C)(O)C3CC3)on2)CN1C(=O)c1ccccc1-n1nccn1 (single isomer, unassigned) [Example 10]",15.6 nM
18,"C[C@@H]1CC[C@@H](c2cc(C(C)(C)O)no2)CN1C(=O)c1ccccc1OCC(F)F [Example 35, 2-{5-[(3R,6R)-1-{[2-(2,2-Difluoroethoxy)phenyl]carbonyl}-6-methylpiperidin-3-yl]isoxazol-3-yl}propan-2-ol]",140 nM
19,"C[C@@H]1CC[C@@H](c2cc([C@H](O)C(F)(F)F)no2)CN1C(=O)c1ccsc1-n1nccn1 [Example 43, (1S)-2,2,2-trifluoro-1-{5-[(3R,6R)-6-methyl-1-{[2-(2H-1,2,3-triazol-2-yl)thiophen-3-yl]carbonyl}piperidin-3-yl]isoxazol-3-yl}ethanol]",162 nM
20,"C[C@@H]1CC[C@@H](c2cc(C(C)(C)O)no2)CN1C(=O)c1ccccc1-n1ncnn1 [Example 32, 2-{5-[(3R,6R)-6-Methyl-1-{[2-(2H-tetrazol-2-yl)phenyl]carbonyl}piperidin-3-yl]isoxazol-3-yl}propan-2-ol]",124 nM
21,"C[C@@H]1CC[C@@H](c2cc(C(C)(C)O)no2)CN1C(=O)c1nccnc1-c1ccccn1 [Example 28, 2-(5-{(3R,6R)-6-Methyl-1-[(3-pyridin-2-ylpyrazin-2-yl)carbonyl]piperidin-3-yl}isoxazol-3-yl)propan-2-ol]",1420 nM
22,"C[C@@H]1CC[C@@H](c2cc(C(C)(C)O)sn2)CN1C(=O)c1cscc1-c1ncccn1 [Example 65, 2-(3-{(3R,6R)-6-Methyl-1-[(4-pyrimidin-2-ylthiophen-3-yl)carbonyl]piperidin-3-yl}isothiazol-5-yl)propan-2-ol]",46.8 nM
23,"CCC(C)(O)c1cc([C@@H]2CC[C@@H](C)N(C(=O)c3ccccc3-n3nccn3)C2)on1 (stereo partly drawn) [Example 55, 2-{5-[(3R,6R)-6-Methyl-1-{[2-(2H-1,2,3-triazol-2-yl)phenyl]carbonyl}piperidin-3-yl]isoxazol-3-yl}butan-2-ol]",39.8 nM
24,"CCC(C)(O)c1cc([C@@H]2CC[C@@H](C)N(C(=O)c3ccccc3-n3nccn3)C2)on1 (stereo partly drawn) [Example 54, 2-{5-[(3R,6R)-6-Methyl-1-{[2-(2H-1,2,3-triazol-2-yl)phenyl]carbonyl}piperidin-3-yl]isoxazol-3-yl}butan-2-ol]",76.1 nM
25,"C[C@@H]1CC[C@@H](c2cc(C(C)(C)O)no2)CN1C(=O)c1ccccc1C1(C#N)CC1 [Example 29, 1-[2-({(2R,5R)-5-[3-(1-Hydroxy-1-methylethyl)isoxazol-5-yl]-2-methylpiperidin-1-yl}carbonyl)phenyl]cyclopropanecarbonitrile]",8.8 nM
26,"C[C@@H]1CC[C@@H](c2cc(C(C)(C)O)no2)CN1C(=O)c1ccccc1OCC(F)(F)F [Example 36, 2-{5-[(3R,6R)-6-Methyl-1-{[2-(2,2,2-trifluoroethoxy)phenyl]carbonyl}piperidin-3-yl]isoxazol-3-yl}propan-2-ol]",212 nM
27,"CCOc1ncccc1C(=O)N1C[C@H](c2cc(C(C)(C)O)no2)CC[C@H]1C [Example 23, 2-(5-{(3R,6R)-1-[(2-Ethoxypyridin-3-yl)carbonyl]-6-methylpiperidin-3-yl}isoxazol-3-yl)propan-2-ol]",268 nM
28,"COC(C)(C)c1cc([C@@H]2CC[C@@H](C)N(C(=O)c3ccccc3-n3nccn3)C2)no1 [Example 19, (2R,5R)-5-[5-(1-methoxy-1-methylethyl)isoxazol-3-yl]-2-methyl-1-{[2-(2H-1,2,3-triazol-2-yl)phenyl]carbonyl}piperidine]",27.3 nM
29,"C[C@@H]1CC[C@@H](c2cc(C(C)(C)O)no2)CN1C(=O)c1cc(Cl)ccc1-n1nccn1 [Example 27, 2-{5-[(3R,6R)-1-{[5-Chloro-2-(2H-1,2,3-triazol-2-yl)phenyl]carbonyl}-6-methylpiperidin-3-yl]isoxazol-3-yl}propan-2-ol]",604 nM
